# Assay results taken from patent US11717508B2, “Compounds, compositions, and methods for inhibiting bacterial growth” (priority 2016, dated 2023).
# Where “and” joins values, the source holds several entries; their conditions need not be identical. Equal entries are not always repeated. Where two headings read alike, the source gives them in different places.
# System: DosRST regulon
# Format: cell-based
# Conditions: for Counts per million (CPM) WT_HC103A: replicates 1, 2
compound,measurement,setting,value
"O=C(Nc1cccc(O)c1)c1cccc(NC(=O)c2cccs2)c1 [HC103A, N-[3-[(3 hydroxyphenyl)carbamoyl]phenyl]thiophene-2-carboxamide]",genes downregulated by compound (total),"40 μM, 6 days, >2-fold, p<0.05",90 genes
same,downregulation of tgs1 gene (transcriptional profiling),"CDC1551, 40 μM, 6 days",~180 fold
same,WT DMSO/WT HC103A fold change,gene MT36S5 Rv3551,0.4042
same,log2 Fold change,gene MT36S5 Rv3551,−1.307
same,WT DMSO/WT HC103A fold change,gene MT0086 Rv0079,0.2341
same,log2 Fold change,gene MT0086 Rv0079,−2.095
same,WT DMSO/WT HC103A fold change,gene MT0087 Rv0080,0.2783
same,log2 Fold change,gene MT0087 Rv0080,−1.845
same,WT DMSO/WT HC103A fold change,gene MT0207 Rv0197,3.65
same,log2 Fold change,gene MT0207 Rv0197,1.868
same,WT DMSO/WT HC103A fold change,gene MT0337 Rv0322 udgA,2.459
same,log2 Fold change,gene MT0337 Rv0322 udgA,1.298
same,WT DMSO/WT HC103A fold change,gene MT0468 Rv0452,2.465
same,log2 Fold change,gene MT0468 Rv0452,1.301
same,WT DMSO/WT HC103A fold change,gene MT0491 Rv0474,2.323
same,log2 Fold change,gene MT0491 Rv0474,1.216
same,WT DMSO/WT HC103A fold change,gene MT0585 Rv0559c,5.989
same,log2 Fold change,gene MT0585 Rv0559c,2.582
same,WT DMSO/WT HC103A fold change,gene MT0586 Rv0560c,282
same,log2 Fold change,gene MT0586 Rv0560c,8.139
same,WT DMSO/WT HC103A fold change,gene MT0595 Rv0569,0.1236
same,log2 Fold change,gene MT0595 Rv0569,−3.016
same,WT DMSO/WT HC103A fold change,gene MT0596 Rv0570 nrdZ,0.02807
same,log2 Fold change,gene MT0596 Rv0570 nrdZ,−5.155
same,Counts per million (CPM) WT_HC103A,gene MT0596 Rv0570 nrdZ,73.81 CPM and 59.09 CPM
same,WT DMSO/WT HC103A fold change,gene MT0597 Rv0571c,0.1705
same,log2 Fold change,gene MT0597 Rv0571c,−2.552
same,Counts per million (CPM) WT_HC103A,gene MT0597 Rv0571c,71.16 CPM and 45.13 CPM
same,WT DMSO/WT HC103A fold change,gene MT0598,0.1036
same,log2 Fold change,gene MT0598,−3.27
same,Counts per million (CPM) WT_HC103A,gene MT0598,38.26 CPM and 19.74 CPM
same,WT DMSO/WT HC103A fold change,gene MT0599 Rv0572c,0.05128
same,log2 Fold change,gene MT0599 Rv0572c,−4.028
same,Counts per million (CPM) WT_HC103A,gene MT0599 Rv0572c,49.68 CPM and 34.61 CPM
same,WT DMSO/WT HC103A fold change,gene MT0600,0.02301
same,log2 Fold change,gene MT0600,−5.442
same,Counts per million (CPM) WT_HC103A,gene MT0600,44.59 CPM and 9.221 CPM
same,WT DMSO/WT HC103A fold change,gene MT0601 Rv0573c,0.1124
same,log2 Fold change,gene MT0601 Rv0573c,−3.153
same,Counts per million (CPM) WT_HC103A,gene MT0601 Rv0573c,11.49 CPM and 9.546 CPM
same,WT DMSO/WT HC103A fold change,gene MT0602 Rv0574c,0.05787
same,log2 Fold change,gene MT0602 Rv0574c,−4.111
same,Counts per million (CPM) WT_HC103A,gene MT0602 Rv0574c,26.39 CPM and 16.69 CPM
same,WT DMSO/WT HC103A fold change,gene MT0808 Rv0784,4.409
same,log2 Fold change,gene MT0808 Rv0784,2.141
same,WT DMSO/WT HC103A fold change,gene MT0846 Rv0824c desA1,0.3753
same,log2 Fold change,gene MT0846 Rv0824c desA1,−1.414
same,Counts per million (CPM) WT_HC103A,gene MT0846 Rv0824c desA1,"2,581.69 CPM and 3,416.39 CPM"
same,WT DMSO/WT HC103A fold change,gene MT0910 Rv0887c,2.543
same,log2 Fold change,gene MT0910 Rv0887c,1.346
same,WT DMSO/WT HC103A fold change,gene MT1095 Rv1065,0.3758
same,log2 Fold change,gene MT1095 Rv1065,−1.412
same,Counts per million (CPM) WT_HC103A,gene MT1095 Rv1065,198.5 CPM and 168.6 CPM
same,WT DMSO/WT HC103A fold change,gene MT1126 Rv1094 desA2,0.3586
same,log2 Fold change,gene MT1126 Rv1094 desA2,−1.44
same,Counts per million (CPM) WT_HC103A,gene MT1126 Rv1094 desA2,"2,249.03 CPM and 2,771.69 CPM"
same,WT DMSO/WT HC103A fold change,gene MT1294 Rv1255c,3.371
same,log2 Fold change,gene MT1294 Rv1255c,1.753
same,WT DMSO/WT HC103A fold change,gene MT1322 Rv1284,0.3386
same,log2 Fold change,gene MT1322 Rv1284,−1.562
same,Counts per million (CPM) WT_HC103A,gene MT1322 Rv1284,223.7 CPM and 205.3 CPM
same,WT DMSO/WT HC103A fold change,gene MT1608 Rv1557 mmpL6,8.81
same,log2 Fold change,gene MT1608 Rv1557 mmpL6,3.139
same,WT DMSO/WT HC103A fold change,gene MT1692 Rv1654 argB,0.2745
same,log2 Fold change,gene MT1692 Rv1654 argB,−1.865
same,Counts per million (CPM) WT_HC103A,gene MT1692 Rv1654 argB,176.3 CPM and 60.13 CPM
same,WT DMSO/WT HC103A fold change,gene MT1693 Rv1655 argD,0.2592
same,log2 Fold change,gene MT1693 Rv1655 argD,−1.948
same,Counts per million (CPM) WT_HC103A,gene MT1693 Rv1655 argD,135.1 CPM and 51.69 CPM
same,WT DMSO/WT HC103A fold change,gene MT1694 Rv1656 argF,0.214
same,log2 Fold change,gene MT1694 Rv1656 argF,−2.224
same,Counts per million (CPM) WT_HC103A,gene MT1694 Rv1656 argF,115.2 CPM and 42.01 CPM
same,WT DMSO/WT HC103A fold change,gene MT1774 Rv1733c,0.01521
same,log2 Fold change,gene MT1774 Rv1733c,−6.039
same,Counts per million (CPM) WT_HC103A,gene MT1774 Rv1733c,40.51 CPM and 8.961 CPM
same,WT DMSO/WT HC103A fold change,gene MT1775,0.1012
same,log2 Fold change,gene MT1775,−3.305
same,Counts per million (CPM) WT_HC103A,gene MT1775,101.9 CPM and 24.16 CPM
same,WT DMSO/WT HC103A fold change,gene MT1776 Rv1735c,0.2125
same,log2 Fold change,gene MT1776 Rv1735c,−2.234
same,Counts per million (CPM) WT_HC103A,gene MT1776 Rv1735c,4.991 CPM and 2.922 CPM
same,WT DMSO/WT HC103A fold change,gene MT1777,0.02322
same,log2 Fold change,gene MT1777,−5.428
same,Counts per million (CPM) WT_HC103A,gene MT1777,5.142 CPM and 2.013 CPM
same,WT DMSO/WT HC103A fold change,gene MT1778 Rv1736c narX,0.0157
same,log2 Fold change,gene MT1778 Rv1736c narX,−5.993
same,Counts per million (CPM) WT_HC103A,gene MT1778 Rv1736c narX,122.3 CPM and 26.17 CPM
same,WT DMSO/WT HC103A fold change,gene MT1779 Rv1737c narK2,0.01434
same,log2 Fold change,gene MT1779 Rv1737c narK2,−6.124
same,Counts per million (CPM) WT_HC103A,gene MT1779 Rv1737c narK2,36.9 CPM and 14.55 CPM
same,WT DMSO/WT HC103A fold change,gene MT1780 Rv1738,0.01855
same,log2 Fold change,gene MT1780 Rv1738,−5.752
same,Counts per million (CPM) WT_HC103A,gene MT1780 Rv1738,133.5 CPM and 33.12 CPM
same,WT DMSO/WT HC103A fold change,gene MT1823 (Rv1773c),0.36
same,log2 Fold change,gene MT1823 (Rv1773c),−1.434
same,Counts per million (CPM) WT_HC103A,gene MT1823 Rv1773c,222.7 CPM and 163.7 CPM
same,WT DMSO/WT HC103A fold change,gene MT1851 Rv1813c,0.01771
same,log2 Fold change,gene MT1851 Rv1813c,−5.819
same,Counts per million (CPM) WT_HC103A,gene MT1851 Rv1813c,58.53 CPM and 24.74 CPM
same,WT DMSO/WT HC103A fold change,gene MT1860 Rv1812c,0.3778
same,log2 Fold change,gene MT1860 Rv1812c,−1.404
same,Counts per million (CPM) WT_HC103A,gene MT1860 Rv1812c,78.19 CPM and 78.7 CPM
same,WT DMSO/WT HC103A fold change,gene MT1882 (Rv1834),0.3504
same,log2 Fold change,gene MT1882 (Rv1834),−1.472
same,Counts per million (CPM) WT_HC103A,gene MT1882 Rv1834,28.36 CPM and 29.22 CPM
same,WT DMSO/WT HC103A fold change,gene MT1986 (Rv1936),0.2546
same,log2 Fold change,gene MT1986 (Rv1936),−1.918
same,Counts per million (CPM) WT_HC103A,gene MT1986 Rv1936,72.29 CPM and 31.56 CPM
same,WT DMSO/WT HC103A fold change,gene MT1987 (Rv1937),0.2435
same,log2 Fold change,gene MT1987 (Rv1937),−2.038
same,Counts per million (CPM) WT_HC103A,gene MT1987 Rv1937,83.71 CPM and 36.75 CPM
same,WT DMSO/WT HC103A fold change,gene MT1988 Rv1938 ephB,0.2508
same,log2 Fold change,gene MT1988 Rv1938 ephB,−1.995
same,Counts per million (CPM) WT_HC103A,gene MT1988 Rv1938 ephB,32.14 CPM and 15.97 CPM
same,WT DMSO/WT HC103A fold change,gene MT1989 (Rv1939),0.2883
same,log2 Fold change,gene MT1989 (Rv1939),−1.794
same,Counts per million (CPM) WT_HC103A,gene MT1989 Rv1939,16.33 CPM and 8.831 CPM
same,WT DMSO/WT HC103A fold change,gene MT2016 (Rv1964),0.2736
same,log2 Fold change,gene MT2016 (Rv1964),−1.87
same,Counts per million (CPM) WT_HC103A,gene MT2016 Rv1964,93.32 CPM and 56.95 CPM
same,WT DMSO/WT HC103A fold change,gene MT2017,0.1841
same,log2 Fold change,gene MT2017,−2.441
same,Counts per million (CPM) WT_HC103A,gene MT2017,44.46 CPM and 29.87 CPM
same,WT DMSO/WT HC103A fold change,gene MT2018 (Rv1966 mce3),0.194
same,log2 Fold change,gene MT2018 (Rv1966 mce3),−2.366
same,Counts per million (CPM) WT_HC103A,gene MT2018 Rv1966 mce3,54.83 CPM and 33.77 CPM
